Source: patent US20150175655A1 (priority 2012, published 2015)

Test system: genotype 1a stable HCV replicon (H77 strain) in Huh-7-derived cells
Assay: Stable subgenomic HCV replicon EC50, genotype 1a (Renilla luciferase)
Type: cell-based
Conditions: Hepatitis C virus, stable replicon genotype 1a, 72 h, read-out: EC50 1A RLUC
Experimental: Antiviral potency (EC50) was determined in both stable subgenomic HCV replicon cell lines and transient-transfected HCV replicon cells. The term half maximal effective concentration (EC50) refers to the concentration of a drug which induces a response halfway between the baseline and maximum after the exposure time specified below.
Stable subgenomic HCV replicons for genotype 1a, 1 b, 2a, 3a, and 4a were established in Huh-7-derived cells as described by Lohmann et al (Lohmann V, Korner F, Koch J, et al Replication of subgenomic hepatitis C virus RNAs in a hepatoma cell line. Science 1999; 285:119-3). Each stable cell line contains a bicistronic HCV replicon that encodes a humanized Renilla luciferase (hRLuc) reporter gene fused to a selectable neomycin-resistance gene, followed by an EMCV IRES and the NS3-NS5B coding region of HCV. […] Luciferase activity was measured as a marker for intracellular HCV replication levels.
The genotype 1a stable replicon was derived from the H77 HCV strain and contained adaptive mutations P1496L and S2204I. The genotype 1 b stable replicon was derived from the Cont HCV strain and contained adaptive mutations E1202G, T1280I, and K1846T. […] The genotype 3a stable replicon was derived from the S52 HCV strain and contained adaptive mutations P1121 L, A1198T and S2210I (equivalent to S2204I in genotype 1). The genotype 4a stable replicon was derived from the ED43 HCV strain and contained adaptive mutations Q1691R and S2204I. All replicon cell lines were propagated in Huh-7-derived cells and maintained in Dulbecco's modified Eagle's Medium (DMEM) supplemented with 10% fetal bovine serum (FBS) and 0.5 mg/mL G418.
To perform EC50 assays, cells from each HCV replicon were dispensed into 384-well plates. Compounds were dissolved in DMSO at a concentration of 10 mM and diluted in DMSO using an automated pipetting instrument. Three-fold serially diluted compounds were directly added to the cells using an automated instrument. […] Seventy-two hours later, cells were lysed and Renilla luciferase activity were quantified as recommended by the manufacturer (Promega-Madison, Wis.). Non-linear regression was performed to calculate EC50 values.

In order of rising EC50:
1. COc1ccc2nc3c(nc2c1)O[C@H]1CN(C(=O)[C@H](C(C)(C)C)NC(=O)O[C@@H]2C[C@H]2CCCCC3F)[C@H](C(=O)N[C@]2(C(=O)NS(=O)(=O)C3(C)CC3)C[C@H]2C(F)F)[C@@H]1C (stereo partly drawn) [Example 47, (1aR,5S,8S,9S,10R,22aR)-5-tert-butyl-N-[(1R,2R)-2-(difluoromethyl)-1-{[(1-methylcyclopropyl)sulfonyl]carbamoyl}cyclopropyl]-18-fluoro-14-methoxy-9-methyl-3,6-dioxo-1,1a,3,4,5,6,9,10,18,19,20,21,22,22a-tetradecahydro-8H-7,10-methanocyclopropa[18,19][1,10,3,6]dioxadiazacyclononadecino[11,12-b]quinoxaline-8-carboxamide]  0.0038 µM
2. C[C@@H]1[C@@H]2CN(C(=O)[C@H](C(C)(C)C)NC(=O)O[C@@H]3C[C@H]3CCCCC(F)(F)c3nc4ccc(Cl)cc4nc3O2)[C@@H]1C(=O)N[C@]1(C(=O)NS(=O)(=O)C2(C)CC2)C[C@H]1C(F)F [Example 88, (1aR,5S,8S,9S,10R,22aR)-5-tert-butyl-14-chloro-N-[(1R,2R)-2-(difluoromethyl)-1-{[(1-methylcyclopropyl)sulfonyl]carbamoyl}cyclopropyl]-18,18-difluoro-9-methyl-3,6-dioxo-1,1a,3,4,5,6,9,10,18,19,20,21,22,22a-tetradecahydro-8H-7,10-methanocyclopropa[18,19][1,10,3,6]dioxadiazacyclononadecino[11,12-b]quinoxaline-8-carboxamide]  0.0093 µM
3. CC[C@@H]1[C@@H]2CN(C(=O)[C@H](C(C)(C)C)NC(=O)O[C@]3(C)CCC[C@H]3CCCCCc3nc4ccc(OC)cc4nc3O2)[C@@H]1C(=O)N[C@]1(C(=O)NS(=O)(=O)C2(C)CC2)C[C@H]1CC(F)F [Example 41, (3aR,7S,10S,11S,12R,24aR)-7-tert-butyl-N-[(1R,2S)-2-(2,2-difluoroethyl)-1-{[(1-methylcyclopropyl)sulfonyl]carbamoyl}cyclopropyl]-11-ethyl-16-methoxy-3a-methyl-5,8-dioxo-1,2,3,3a,5,6,7,8,11,12,20,21,22,23,24,24a-hexadecahydro-10H-9,12-methanocyclopenta[18,19][1,10,3,6]dioxadiazacyclononadecino[11,12-b]quinoxaline-10-carboxamide]  0.135 µM
4. CC[C@@H]1[C@@H]2CN(C(=O)[C@H](C(C)(C)C)NC(=O)O[C@@H]3C[C@H]3CC/C=C/C(F)(F)C3Nc4ccc(C#N)cc4N=C3O2)[C@@H]1C(=O)N[C@]1(C(=O)NS(=O)(=O)C2(C)CC2)C[C@H]1C(F)F (stereo partly drawn) [Example 78, (1aR,5S,8S,9S,10R,19E,22aR)-5-tert-butyl-14-cyano-N-[(1R,2R)-2-(difluoromethyl)-1-{[(1-methylcyclopropyl)sulfonyl]carbamoyl}cyclopropyl]-9-ethyl-18,18-difluoro-3,6-dioxo-1,1a,3,4,5,6,9,10,17,17a,18,21,22,22a-tetradecahydro-8H-7,10-methanocyclopropa[18,19][1,10,3,6]dioxadiazacyclononadecino[11,12-b]quinoxaline-8-carboxamide]  0.267 µM
